From US7309584B2, “Mutations of the MDR1 P-glycoprotein that improves its ability to confer resistance to chemotherapeutic drugs” (The Board of Trustees of the University of Illinois, priority 2000, dated 2007)

What was measured:
[1] = tested on: NIH 3T3 cells; experiment: clonogenic assays for drug resistance of NIH 3T3 cells transduced with MDR1 constructs; type: cell-based; settings: for colchicine resistance relative to the LMDR1-G185V construct: FIG. 5C, 6C; for doxorubicin resistance relative to the LMDR1-G185V construct: FIG. 5B, 6B; for fold increase in doxorubicin resistance relative to the LMDR1-G185V construct: transduced NIH 3T3 cells, Table II; for fold increase in etoposide resistance relative to the LMDR1-G185V construct: transduced NIH 3T3 cells sorted for similar P-glycoprotein levels; for fold increase in etoposide resistance relative to the LMDR1-G185V construct / etoposide resistance relative to the LMDR1-G185V construct: FIG. 5A; for taxol resistance relative to the LMDR1-G185V construct: FIG. 6E; for vinblastine resistance relative to the LMDR1-G185V construct: FIG. 6D; for etoposide resistance relative to the LMDR1-G185V construct: 6A; for colchicine resistance relative to cells transduced with wild-type MDR1: FIG. 4B; for doxorubicin resistance relative to cells transduced with wild-type MDR1: FIG. 4C; for etoposide resistance relative to cells transduced with wild-type MDR1: FIG. 4A; for taxol resistance relative to cells transduced with wild-type MDR1: FIG. 4E; for vinblastine resistance relative to cells transduced with wild-type MDR1: FIG. 4D
Text: FIGS. 4A through 4E illustrate the results of clonogenic assays for resistance to etoposide (panel A), colchicine (panel B), doxorubicin (panel C), vinblastine (panel D), and taxol (panel E) for NIH 3T3 cells transduced with LXSN (closed squares), wild-type MDR1 (closed circles), MDR1-G185V (open circles), MDR1-I186N (closed triangles), or MDR1-G185V/I186N (open triangles);
FIGS. 5A through 5C illustrate the results of clonogenic assays for resistance to etoposide (panel A), doxorubicin (panel B), and colchicine (panel C) for NIH 3T3 cells transduced with LMDR1-G185V (open circles), LMDR1-G185V-EK2 (closed triangles), LMDR1-G185V-EK3 (open triangles), or LMDR1-G185V-EK5 (closed diamonds);
FIGS. 6A through 6E illustrate the results of clonogenic assays for resistance to etoposide (panel A), doxorubicin (panel B), colchicine (panel C), vinblastine (panel D), and taxol (panel E) for NIH 3T3 cells transduced with LMDR1-G185V (closed circles), LMDR1-G185V-L56F (open circles), LMDR1-G185V-I190F/M197F (closed triangles), LMDR1-G185V-G763W (open triangles), or LMDR1-G185V-G844Q (closed squares).
Retroviral vectors carrying LXSN (negative control carrying the neomycin/G418 resistance gene), wild-type MDR1, MDR1-G185V, MDR1-I186N, or MDR1-G185V/I186N were individually transduced into NIH 3T3 cells. Populations transduced with MDR1 containing vectors were stained with the P-glycoprotein-specific monoclonal antibody MRK16, and then sorted to obtain cell populations expressing a similar level of P-glycoprotein.
NIH 3T3 cells were transduced with the LMDR1-G185V, LMDR1-G185V-EK2, LMDR1-G185V-EK3, or LMDR1-G185V-EK5 constructs, and the transduced cells were then sorted by FACS to generate pure populations of P-glycoprotein positive cells having similar levels of P-glycoprotein. Following sorting, the cell populations were analyzed for their drug resistance.
To investigate the mutants 8-A4, 5-C3, 2-B2, and 2-B1, having mutations in one of the transmembrane domains, MDR1-G185V cDNA was modified by site-directed mutagenesis to create the following constructs: LMDR1-G185V-L56F (leucine to phenylalanine mutation at residue 56), LMDR1-G185V-I190F/M197F (isoleucine to phenylalanine mutation at amino acid residue 190 and methionine to phenylalanine mutation at residue 197), LMDR1-G185V-G763W (glycine to tryptophan mutation at residue 763), and LMDR1-G185V-G844Q (glycine to glutamine mutation at residue 844). NIH 3T3 cells were transduced with either the LMDR1-G185V construct or one of the transmembrane mutant constructs, and the transduced cells were then sorted by FACS to generate pure populations of P-glycoprotein positive cells having similar levels of P-glycoprotein. Following sorting, the cell populations were analyzed for their drug resistance.

[2] = tested on: NIH 3T3 cells; experiment: etoposide resistance / survival in etoposide of NIH 3T3 cells transduced with rescued MDR1-G185V mutants; type: cell-based; settings: mutant fragments recloned into LMDR1-G185V, similar MDR1 expression
Procedure: Mutant MDR1-G185V cDNA isolated from eleven clonal lines was tested for the ability to confer elevated resistance to etoposide as compared to unmutagenized MDR1-G185V. Fragments of MDR1 cDNA containing mutations were first excised from the MDR1 cDNA using restriction endonucleases that recognize appropriate sites flanking the mutation, and then the fragments were recloned into the parental LMDR1-G185V vector. Naïve NIH 3T3 cells were individually transduced with the eleven LMDR1-G185V mutants, wild-type LMDR1-G185V, or LXSN, and then analyzed by FACS for MDR1 expression. […] The cell populations were then assayed for etoposide resistance.
An array selection strategy was employed to isolate additional MDR1 mutants conferring hyper-resistance to etoposide from the cells transduced with Mut II and selected in 10 μg/mL etoposide, as described in Example 1 (this selection scheme is shown in FIG. 1C and in FIG. 2). The 131 clonal lines from Example 1 were divided into four pools. MDR1 cDNA was recovered by PCR from each of the four pools, recloned back into LXSN, and used to transform bacterial cells to generate four MDR1 mutant libraries. These libraries were plated; individual bacterial colonies were picked and tested by array analysis. […]

LMDR1-G185V-EK2: MDR1-G185V construct with glutamic acid to lysine substitutions at positions 634 and 636
colchicine resistance relative to the LMDR1-G185V construct [1]: decrease colchicine resistance | doxorubicin resistance relative to the LMDR1-G185V construct [1]: increase doxorubicin resistance | fold increase in doxorubicin resistance relative to the LMDR1-G185V construct [1]: almost two-fold increase | fold increase in etoposide resistance relative to the LMDR1-G185V construct [1]: 1.4 fold

LMDR1-G185V-EK3: MDR1-G185V construct with glutamic acid to lysine substitutions at positions 643, 647, and 652
colchicine resistance relative to the LMDR1-G185V construct [1]: decrease colchicine resistance | doxorubicin resistance relative to the LMDR1-G185V construct [1]: increase doxorubicin resistance | fold increase in doxorubicin resistance relative to the LMDR1-G185V construct [1]: nearly a four-fold increase | fold increase in etoposide resistance relative to the LMDR1-G185V construct [1]: 1.6 fold

L56F: MDR1-G185V construct with leucine to phenylalanine mutation at residue 56
colchicine resistance relative to the LMDR1-G185V construct [1]: increased colchicine resistance | doxorubicin resistance relative to the LMDR1-G185V construct [1]: very strong resistance to doxorubicin | taxol resistance relative to the LMDR1-G185V construct [1]: decreased taxol resistance | vinblastine resistance relative to the LMDR1-G185V construct [1]: decreased vinblastine resistance

I190F/M197F: MDR1-G185V construct with isoleucine to phenylalanine at residue 190 and methionine to phenylalanine at residue 197
doxorubicin resistance relative to the LMDR1-G185V construct [1]: moderate increases in doxorubicin resistance | etoposide resistance relative to the LMDR1-G185V construct [1]: the greatest resistance | taxol resistance relative to the LMDR1-G185V construct [1]: significant increase in taxol resistance | vinblastine resistance relative to the LMDR1-G185V construct [1]: increased vinblastine resistance

G763W: MDR1-G185V construct with glycine to tryptophan mutation at residue 763
doxorubicin resistance relative to the LMDR1-G185V construct [1]: moderate increases in doxorubicin resistance | taxol resistance relative to the LMDR1-G185V construct [1]: no effect on taxol resistance | vinblastine resistance relative to the LMDR1-G185V construct [1]: only a moderate increase in vinblastine resistance

MDR1-G185V/I186N: mutant human P-glycoprotein having both G185V and I186N substitutions
colchicine resistance relative to cells transduced with wild-type MDR1 [1]: indistinguishable from that obtained for cells transduced with the MDR1-G185V construct | doxorubicin resistance relative to cells transduced with wild-type MDR1 [1]: an even higher level of doxorubicin resistance | etoposide resistance relative to cells transduced with wild-type MDR1 [1]: higher level of etoposide resistance than cells transduced with either the MDR1-G185V or MDR1-I186N constructs

MDR1-G185V: human P-glycoprotein having a glycine to valine substitution at position 185 (SEQ ID NO: 3) [reference compound]
colchicine resistance relative to cells transduced with wild-type MDR1 [1]: an even higher level of colchicine resistance | doxorubicin resistance relative to cells transduced with wild-type MDR1 [1]: doxorubicin resistance was enhanced | etoposide resistance relative to cells transduced with wild-type MDR1 [1]: increase etoposide resistance | taxol resistance relative to cells transduced with wild-type MDR1 [1]: decrease resistance levels to both of these drugs | vinblastine resistance relative to cells transduced with wild-type MDR1 [1]: decrease resistance levels to both of these drugs

LMDR1-G185V-EK5: MDR1-G185V construct with glutamic acid to lysine substitutions at positions 634, 636, 643, 647 and 652
colchicine resistance relative to the LMDR1-G185V construct [1]: the greatest decrease in colchicine resistance | etoposide resistance relative to the LMDR1-G185V construct [1]: the effect of the double and triple lysine mutants was not additive

MDR1-I186N: mutant human P-glycoprotein having an asparagine substitution at position 186 (SEQ ID NO: 4)
colchicine resistance relative to cells transduced with wild-type MDR1 [1]: increase colchicine resistance | doxorubicin resistance relative to cells transduced with wild-type MDR1 [1]: doxorubicin resistance was enhanced | etoposide resistance relative to cells transduced with wild-type MDR1 [1]: increase etoposide resistance to a similar degree as the G185V substitution | taxol resistance relative to cells transduced with wild-type MDR1 [1]: increase resistance to both of these drugs | vinblastine resistance relative to cells transduced with wild-type MDR1 [1]: increase resistance to both of these drugs | etoposide resistance as compared to unmutagenized MDR1-G185V [2]: increased resistance to etoposide
